The nature of data set [1]: Flux of membrane before and after soaking in biocide in synthetic sea water (flat sheet cell). The following applies: for Initial flux: before soaking. As to the method: Flux and salt rejection of fresh membrane were measured before and after soaking. The membrane was placed in a flat sheet cell (Alfa Laval LabM20). The operating conditions were, feed pressure 20 bar (for sea water membrane 55 bar), salt (synthetic sea water prepared according to ASTM standard D1141), temperature 25° C. The flux measurement was done for 3 hours.
Soaking was done by mixing biocide with synthetic sea water. The concentration of the added biocide in the synthetic sea water was for PFA 14 and 84 mg/l as active substance, for peracetic acid (PAA) 7, 18 and 35 mg/l as active substance and sodium hypochlorite 20 mg/l as active substance. PFA was added to the synthetic seawater as an equilibrium solution having PFA content 14 weight-%, PAA was added as an equilibrium solution having PAA content 35 weight-% and sodium hypochlorite having concentration of 15 weight-%.
The soaking time was 24 or 144 hours. Performic acid equilibrium solution was made by mixing in 1:1 weight proportion of a solution that contained 50% hydrogen peroxide with a solution that contained 75 weight-% formic acid, 12 weight-% sulfuric acid and 13 weight-% water. After soaking membranes were placed again to the flat sheet cell and salt rejection and flux were measured at the same conditions as before soaking.

The nature of data set [2]: Laboratory scale continuous filtration experiment, PFA added continuously into feed. As to the method:
The impact of PFA on membrane was further studied by a laboratory scale continuous filtration experiment. The type of membrane used in the experiment was brackish water membrane (FilmTec BW30LE).
The continuous filtration has been done in parallel. From a single brackish water tank the water was pumped to two parallel lines with flat sheet cells having similar brackish water membrane. In one line PFA was added continuously into feed and in other line (control) there was no PFA addition. The filtration conditions were as follows: pressure 15 bar, salt (sea salt): 2 g/l, Temperature: 20° C., flow rate: 48 l/h, PFA dosing rate: 6.5 g/h equilibrium solution having PFA active substance concentration 14 weight-% (=19.8 ppm active substance/l of brackish water). Flux and conductivity of permeate and concentrate were monitored and collected over time (for 30 days).

These results are taken from US10118131B2, “Method for preventing microbial growth on a filtration membrane” (KEMIRA OYJ, priority 2011, dated 2018).

On to `O=COO` [Performic acid, performic acid], for which the Flux after soaking in data set [1] (14 mg/l active substance in synthetic sea water, soaking 144 hour) stood at 84; in data set [1] (84 mg/l active substance in synthetic sea water, soaking 24 hour) it was 95. The Initial flux is reported as 86 in data set [1] (membrane later soaked at 14 mg/l active substance, 144 hour) and 98 in data set [1] (membrane later soaked at 84 mg/l active substance, 24 hour). Also, in data set [1] (soaked membranes of Table 1), the “differences between flux before and after soaking” value is “less than 15%”. For the same molecule, the Initial permeate flux in data set [2] (19.8 ppm active substance continuously in feed, 15 bar, sea salt 2 g/l, 20° C.) is recorded as 250 g/h. Also, the Final permeate flux in data set [2] (19.8 ppm active substance continuously in feed, 30 days, 15 bar, sea salt 2 g/l, 20° C.) is 250 g/h. The “changes in flux over test period” value in data set [2] (FIG. 1 B, PFA added continuously, 30 days) is “small”.

In the case of `CC(=O)OO` [Peracetic acid, peracetic acid], the Flux after soaking worked out at 73 in data set [1] (7 mg/l active substance in synthetic sea water, soaking 144 hour); 53 in data set [1] (18 mg/l active substance in synthetic sea water, soaking 144 hour); 44 in data set [1] (35 mg/l active substance in synthetic sea water, soaking 144 hour). For the same molecule, the Initial flux in data set [1] (membrane later soaked at 7 mg/l active substance, 144 hour) turned out to be 86; in data set [1] (membrane later soaked at 18 mg/l active substance, 144 hour) it was 91; in data set [1] (membrane later soaked at 35 mg/l active substance, 144 hour), 86.

Take `[Na+].[O-]Cl` [Hypochlorite, sodium hypochlorite]: the “differences between flux before and after soaking” value in data set [1] (not told) was over 15%.
